Experimental data: ChEMBL document CHEMBL1201862, “PubChem BioAssay data set” (2004)
“And” between values parts separate entries of the source, which are not always exact repeats. Equal values may be shown once. The source made the active and inactive calls.

Legend:
[1] = target: T1, Aryl hydrocarbon receptor (Homo sapiens, UniProt P35869); conditions: Potency;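 further: confirmatory quantitative high-throughput screen measuring activation of the AhR signaling pathway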
T1 sequence (P35869 whole entry): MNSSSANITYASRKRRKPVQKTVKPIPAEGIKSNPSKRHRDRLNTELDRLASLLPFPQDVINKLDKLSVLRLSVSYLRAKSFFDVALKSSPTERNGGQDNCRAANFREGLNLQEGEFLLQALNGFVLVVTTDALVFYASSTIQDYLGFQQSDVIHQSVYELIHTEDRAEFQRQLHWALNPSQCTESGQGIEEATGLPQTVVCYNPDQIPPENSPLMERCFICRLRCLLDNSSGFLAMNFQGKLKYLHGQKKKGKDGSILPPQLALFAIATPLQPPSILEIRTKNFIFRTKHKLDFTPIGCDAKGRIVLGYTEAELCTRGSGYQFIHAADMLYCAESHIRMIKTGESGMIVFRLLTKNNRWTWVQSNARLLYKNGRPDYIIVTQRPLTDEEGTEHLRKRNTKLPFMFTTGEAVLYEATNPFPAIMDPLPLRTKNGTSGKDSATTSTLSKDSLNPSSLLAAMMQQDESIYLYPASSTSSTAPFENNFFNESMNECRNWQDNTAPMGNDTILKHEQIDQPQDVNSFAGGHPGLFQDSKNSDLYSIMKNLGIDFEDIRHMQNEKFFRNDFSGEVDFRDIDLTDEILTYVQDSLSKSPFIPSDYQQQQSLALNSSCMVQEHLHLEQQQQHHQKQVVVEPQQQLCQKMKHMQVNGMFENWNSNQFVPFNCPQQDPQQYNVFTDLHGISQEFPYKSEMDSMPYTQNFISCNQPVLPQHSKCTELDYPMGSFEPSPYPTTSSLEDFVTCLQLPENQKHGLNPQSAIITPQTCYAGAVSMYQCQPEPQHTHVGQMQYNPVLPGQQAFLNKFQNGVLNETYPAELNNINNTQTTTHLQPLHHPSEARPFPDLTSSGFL

P388 = assay: cells; assay type: functional; conditions: Mus musculus
SN12K1 = assay: cells; assay type: functional; conditions: Homo sapiens
P388/ADR = assay: cells; assay type: functional; conditions: Mus musculus
Cytochrome P450 1A2 = target: T2, Cytochrome P450 1A2 (Homo sapiens, UniProt P05177);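 further: PubChem cytochrome P450 panel assay, CYP1A2 panel member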
T2 sequence (P05177 whole entry): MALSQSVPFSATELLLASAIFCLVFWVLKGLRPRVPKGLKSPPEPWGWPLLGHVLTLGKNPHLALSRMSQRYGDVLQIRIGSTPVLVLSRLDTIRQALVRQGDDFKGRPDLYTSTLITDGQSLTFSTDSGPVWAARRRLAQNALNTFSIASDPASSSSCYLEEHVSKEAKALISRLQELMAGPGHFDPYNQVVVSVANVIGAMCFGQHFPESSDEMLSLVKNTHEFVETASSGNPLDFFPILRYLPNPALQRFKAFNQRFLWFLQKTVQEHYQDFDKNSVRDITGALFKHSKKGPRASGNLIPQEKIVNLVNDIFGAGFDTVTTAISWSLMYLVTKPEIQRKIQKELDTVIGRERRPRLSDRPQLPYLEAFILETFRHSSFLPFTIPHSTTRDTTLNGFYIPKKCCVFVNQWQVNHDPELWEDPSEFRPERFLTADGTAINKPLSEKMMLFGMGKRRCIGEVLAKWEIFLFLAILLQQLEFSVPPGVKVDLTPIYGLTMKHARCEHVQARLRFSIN

Cytochrome P450 3A4 [2] = target: T3, Cytochrome P450 3A4 (Homo sapiens, UniProt P08684)
T3 sequence (P08684 whole entry): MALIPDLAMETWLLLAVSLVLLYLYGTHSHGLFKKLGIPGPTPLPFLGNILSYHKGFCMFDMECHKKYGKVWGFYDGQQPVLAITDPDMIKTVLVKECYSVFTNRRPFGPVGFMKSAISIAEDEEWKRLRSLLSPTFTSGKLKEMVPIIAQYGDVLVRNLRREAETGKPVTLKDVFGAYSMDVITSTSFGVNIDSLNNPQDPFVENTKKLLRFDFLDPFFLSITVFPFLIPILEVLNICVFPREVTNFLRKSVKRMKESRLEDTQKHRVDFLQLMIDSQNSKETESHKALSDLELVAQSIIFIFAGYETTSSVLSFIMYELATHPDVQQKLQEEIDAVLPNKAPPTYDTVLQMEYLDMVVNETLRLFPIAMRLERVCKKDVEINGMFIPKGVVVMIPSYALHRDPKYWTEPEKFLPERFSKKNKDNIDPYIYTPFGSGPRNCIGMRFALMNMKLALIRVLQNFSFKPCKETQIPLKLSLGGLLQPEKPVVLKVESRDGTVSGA

[3] = Luminescence Cell-Based Dose Confirmation HTS to Identify Activators of 5'UTR Stem-Loop Driven Alpha-Synuclein mRNA Translation in H4 Neuroglioblastoma Cells. [Related pubchem assays: 1829 (Project Summary), 1814 (Primary HTS)]; assay type: functional
[4] = Luminescence Cell-Based Dose Response HTS to Identify Activators of Luciferase Translation or Activity in H4 […] Cells. [Related pubchem assays: 1829 (Project Summary), 1814 (Primary HTS)]; assay type: functional
H4 = assay: Luminescence Cell-Based Dose Response HTS to Identify Activators of 5'UTR Stem-Loop Driven Prion Protein mRNA Translation in H4 Neuroglioblastoma Cells. [Related pubchem assays: 1829 (Project Summary), 1814 (Primary HTS)]; assay type: functional; conditions: Homo sapiens
[5] = target: DNA dC->dU-editing enzyme APOBEC-3A (Homo sapiens, UniProt P31941); assay: Dose Response confirmation of small molecule APOBEC3A DNA Deaminase Inhibitors via a fluorescence-based single-stranded DNA deaminase assay. [Related pubchem assays (depositor defined):AID493011, AID493024]; assay type: functional
Sequence of DNA dC->dU-editing enzyme APOBEC-3A (P31941 whole entry): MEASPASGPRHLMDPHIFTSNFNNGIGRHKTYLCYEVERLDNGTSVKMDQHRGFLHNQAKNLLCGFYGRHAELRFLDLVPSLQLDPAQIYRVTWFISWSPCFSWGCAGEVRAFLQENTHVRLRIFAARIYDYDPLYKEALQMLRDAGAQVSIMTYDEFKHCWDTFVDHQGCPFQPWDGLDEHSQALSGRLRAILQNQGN

[6] = target: DNA dC->dU-editing enzyme APOBEC-3G (Homo sapiens, UniProt Q9HC16); assay type: functional;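 further: Dose-response counterscreen measuring inhibition of APOBEC3G DNA deaminase activity, run while confirming APOBEC3A inhibitors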
Sequence of DNA dC->dU-editing enzyme APOBEC-3G (Q9HC16 whole entry, the tested form may be a part): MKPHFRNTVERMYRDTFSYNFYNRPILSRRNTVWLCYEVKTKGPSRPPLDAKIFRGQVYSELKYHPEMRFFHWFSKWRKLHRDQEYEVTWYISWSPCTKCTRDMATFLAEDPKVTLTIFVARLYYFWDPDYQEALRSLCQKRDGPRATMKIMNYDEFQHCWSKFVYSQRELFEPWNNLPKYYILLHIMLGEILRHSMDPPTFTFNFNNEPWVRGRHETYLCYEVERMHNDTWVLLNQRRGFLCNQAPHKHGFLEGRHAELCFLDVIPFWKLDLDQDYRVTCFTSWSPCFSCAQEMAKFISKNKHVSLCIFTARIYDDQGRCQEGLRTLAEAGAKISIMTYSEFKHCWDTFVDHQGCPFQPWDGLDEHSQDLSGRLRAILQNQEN

[7] = target: T4, Carboxy-terminal domain RNA polymerase II polypeptide A small phosphatase 1 (Homo sapiens, UniProt Q9GZU7); assay: CTDSP1 inhibitors, concentration-response, biochemical, absorbance readout, ultra-high-throughput screen actives (AID 540297); assay type: functional
T4 sequence (Q9GZU7 whole entry): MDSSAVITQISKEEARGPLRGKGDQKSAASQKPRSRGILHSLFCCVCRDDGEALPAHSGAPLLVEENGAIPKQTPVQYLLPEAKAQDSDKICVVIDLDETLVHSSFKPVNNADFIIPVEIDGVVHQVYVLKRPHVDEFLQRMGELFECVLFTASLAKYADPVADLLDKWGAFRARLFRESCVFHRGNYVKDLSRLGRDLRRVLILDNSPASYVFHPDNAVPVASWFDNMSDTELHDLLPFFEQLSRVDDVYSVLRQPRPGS

[8] = fluconazole-exposed Candida albicans growth modulators – fluorescence, retest, confirmation (AID 2467); assay type: functional, cell-based
INS1 = assay: INS-1E survival protection against cytokine death – cell-based, luminescence, retest, dose response (AID 449756); assay type: functional; conditions: Rattus norvegicus;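 further: cell death triggered by IL-1 beta plus TNF-alpha plus IFN-gamma mixture; protective hits raise ATP signal compared with cytokine alone wells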
Protein Wnt-3a = Protein Wnt-3a (Mus musculus, UniProt P27467); assay: antagonism of Wnt3a pathway luciferase reporter – Wnt-LIGHT cells, luminescence, selectivity assay for Gli-SUFU antagonist project, dose response (AID 651570); assay type: functional; conditions: read-out: IC50_Mean;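 further: Wnt-LIGHT reporter cells stimulated with conditioned medium from Wnt3a-producing cells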
Sequence of Protein Wnt-3a (P27467 whole entry): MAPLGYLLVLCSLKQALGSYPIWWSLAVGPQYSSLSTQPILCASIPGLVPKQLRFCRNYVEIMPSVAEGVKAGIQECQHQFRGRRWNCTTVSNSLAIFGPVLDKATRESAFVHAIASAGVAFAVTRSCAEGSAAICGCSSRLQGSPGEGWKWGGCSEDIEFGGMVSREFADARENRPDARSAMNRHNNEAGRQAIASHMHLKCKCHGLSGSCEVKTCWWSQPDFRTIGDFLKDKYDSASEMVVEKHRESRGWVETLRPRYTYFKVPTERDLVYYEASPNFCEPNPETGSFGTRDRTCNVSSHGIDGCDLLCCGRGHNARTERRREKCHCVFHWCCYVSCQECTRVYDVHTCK

[9] = NIH-3T3 fibroblast cytotoxicity, dose response, cytotoxicity control, cell-based, fluorescence, Alamar Blue, secondary assay (AID 2327); assay type: functional;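 further: NIH-3T3 mouse fibroblasts cultured with fluconazole at 8 µg/mL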
[10] = target: Ras and Rab interactor 1/Tyrosine-protein kinase ABL1 (Homo sapiens, UniProt P00519+Q13671); assay type: functional;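 further: biochemical TR-FRET dose-response test measuring inhibition of binding between Rin1 and Abl proteins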
Sequence of Ras and Rab interactor 1/Tyrosine-protein kinase ABL1 (P00519 whole entry): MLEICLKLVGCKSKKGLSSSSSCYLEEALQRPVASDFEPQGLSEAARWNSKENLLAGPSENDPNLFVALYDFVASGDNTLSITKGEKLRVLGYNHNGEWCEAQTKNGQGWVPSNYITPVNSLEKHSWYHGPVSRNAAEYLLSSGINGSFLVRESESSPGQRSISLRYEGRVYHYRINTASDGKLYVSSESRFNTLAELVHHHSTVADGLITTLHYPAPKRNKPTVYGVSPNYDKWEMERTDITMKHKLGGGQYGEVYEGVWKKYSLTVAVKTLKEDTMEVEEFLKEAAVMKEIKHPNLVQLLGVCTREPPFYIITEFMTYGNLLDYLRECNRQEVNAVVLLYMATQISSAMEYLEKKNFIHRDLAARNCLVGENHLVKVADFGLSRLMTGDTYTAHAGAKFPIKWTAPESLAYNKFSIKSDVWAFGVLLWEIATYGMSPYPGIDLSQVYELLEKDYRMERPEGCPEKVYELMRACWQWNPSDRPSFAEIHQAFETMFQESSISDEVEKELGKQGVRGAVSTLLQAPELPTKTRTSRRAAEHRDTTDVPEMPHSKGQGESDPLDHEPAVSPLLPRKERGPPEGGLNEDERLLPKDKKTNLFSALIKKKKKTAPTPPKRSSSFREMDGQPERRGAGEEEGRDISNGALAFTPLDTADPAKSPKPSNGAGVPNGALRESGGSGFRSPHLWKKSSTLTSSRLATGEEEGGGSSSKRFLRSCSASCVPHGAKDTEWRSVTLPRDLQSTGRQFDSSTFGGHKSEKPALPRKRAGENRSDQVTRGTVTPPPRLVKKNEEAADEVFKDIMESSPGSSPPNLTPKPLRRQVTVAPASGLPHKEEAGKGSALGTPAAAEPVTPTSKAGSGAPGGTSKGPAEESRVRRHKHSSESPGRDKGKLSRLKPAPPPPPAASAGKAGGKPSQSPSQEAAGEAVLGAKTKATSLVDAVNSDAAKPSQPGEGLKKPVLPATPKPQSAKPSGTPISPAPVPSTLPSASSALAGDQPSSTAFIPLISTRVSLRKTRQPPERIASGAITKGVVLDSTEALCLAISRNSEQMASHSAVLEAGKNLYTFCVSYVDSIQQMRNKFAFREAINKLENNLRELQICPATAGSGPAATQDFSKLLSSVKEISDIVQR
Sequence of Ras and Rab interactor 1/Tyrosine-protein kinase ABL1 (Q13671 whole entry): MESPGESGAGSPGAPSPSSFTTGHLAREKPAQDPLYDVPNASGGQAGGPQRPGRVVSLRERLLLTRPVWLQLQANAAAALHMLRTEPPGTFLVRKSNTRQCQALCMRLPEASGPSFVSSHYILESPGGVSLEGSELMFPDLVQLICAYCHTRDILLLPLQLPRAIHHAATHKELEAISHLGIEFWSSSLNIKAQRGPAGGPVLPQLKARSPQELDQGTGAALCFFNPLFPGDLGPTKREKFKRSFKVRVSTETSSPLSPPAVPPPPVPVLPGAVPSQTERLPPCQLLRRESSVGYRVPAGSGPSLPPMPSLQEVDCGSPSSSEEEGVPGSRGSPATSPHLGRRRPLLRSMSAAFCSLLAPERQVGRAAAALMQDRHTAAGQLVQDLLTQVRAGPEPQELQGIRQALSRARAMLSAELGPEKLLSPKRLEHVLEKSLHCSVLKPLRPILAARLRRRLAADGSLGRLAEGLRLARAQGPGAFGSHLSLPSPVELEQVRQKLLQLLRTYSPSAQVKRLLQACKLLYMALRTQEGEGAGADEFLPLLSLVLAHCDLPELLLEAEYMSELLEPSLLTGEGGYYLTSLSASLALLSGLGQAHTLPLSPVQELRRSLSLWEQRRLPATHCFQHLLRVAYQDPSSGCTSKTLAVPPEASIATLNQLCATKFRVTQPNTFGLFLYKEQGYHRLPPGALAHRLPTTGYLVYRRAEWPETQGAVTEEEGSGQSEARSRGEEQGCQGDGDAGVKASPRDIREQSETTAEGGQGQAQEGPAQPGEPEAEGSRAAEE

[11] = target: T5, Apoptotic protease-activating factor 1 (Homo sapiens, UniProt O14727); assay type: functional
T5 sequence (O14727 whole entry): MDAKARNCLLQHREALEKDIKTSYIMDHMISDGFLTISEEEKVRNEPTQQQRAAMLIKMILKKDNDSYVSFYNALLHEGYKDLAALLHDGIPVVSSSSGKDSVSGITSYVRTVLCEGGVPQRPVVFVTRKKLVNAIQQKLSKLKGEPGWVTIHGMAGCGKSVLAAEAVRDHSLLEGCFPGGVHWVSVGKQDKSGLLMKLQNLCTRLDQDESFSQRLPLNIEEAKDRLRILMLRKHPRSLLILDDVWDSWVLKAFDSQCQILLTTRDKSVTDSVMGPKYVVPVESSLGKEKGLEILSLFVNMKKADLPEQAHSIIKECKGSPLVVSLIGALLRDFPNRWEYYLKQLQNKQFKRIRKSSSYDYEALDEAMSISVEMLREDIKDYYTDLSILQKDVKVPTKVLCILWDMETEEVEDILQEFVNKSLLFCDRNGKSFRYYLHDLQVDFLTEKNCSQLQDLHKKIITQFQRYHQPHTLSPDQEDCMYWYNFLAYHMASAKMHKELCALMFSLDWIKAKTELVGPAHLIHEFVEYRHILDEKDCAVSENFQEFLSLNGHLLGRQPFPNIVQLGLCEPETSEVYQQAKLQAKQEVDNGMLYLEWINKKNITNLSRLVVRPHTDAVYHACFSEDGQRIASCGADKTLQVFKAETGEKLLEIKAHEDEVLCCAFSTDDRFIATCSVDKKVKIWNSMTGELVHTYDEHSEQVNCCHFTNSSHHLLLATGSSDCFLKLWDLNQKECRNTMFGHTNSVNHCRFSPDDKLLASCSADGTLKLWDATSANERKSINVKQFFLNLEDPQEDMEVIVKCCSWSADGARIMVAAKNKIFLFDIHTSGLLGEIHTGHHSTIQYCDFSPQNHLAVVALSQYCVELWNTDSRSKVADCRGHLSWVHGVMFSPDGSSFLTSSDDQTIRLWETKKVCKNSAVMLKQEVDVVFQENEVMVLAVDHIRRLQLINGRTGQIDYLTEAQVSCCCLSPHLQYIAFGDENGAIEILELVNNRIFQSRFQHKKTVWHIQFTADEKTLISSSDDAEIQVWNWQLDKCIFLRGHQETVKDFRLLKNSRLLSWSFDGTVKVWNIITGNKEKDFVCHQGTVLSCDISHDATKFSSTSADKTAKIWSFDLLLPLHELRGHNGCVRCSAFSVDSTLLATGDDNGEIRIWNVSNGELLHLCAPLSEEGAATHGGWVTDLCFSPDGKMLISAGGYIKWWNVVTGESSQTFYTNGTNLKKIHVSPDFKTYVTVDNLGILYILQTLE

[12] = viability of uninfected HEp-2 cells – cell-based, HTS, cytotoxicity control for RSV inhibitor project, dose response (AID 2410); assay type: functional; conditions: human respiratory syncytial virus
A-375 [13] = assay: MITF: Counter assay: A375 proliferation Measured in Cell-Based System Using Plate Reader - 2084-03_Inhibitor_Dose_DryPowder_Activity. [Related pubchem assays (depositor defined):AID488944]; assay type: functional; conditions: Homo sapiens
A-375 [14] = assay: proliferation inhibition in MITF-low A375 cells – cell-based, cherry-pick samples, set 2, counter-screen for MITF modulator project, dose response (AID 540335); assay type: functional; conditions: Homo sapiens
[15] = target: T6, Ubiquitin-conjugating enzyme E2 N (Homo sapiens, UniProt P61088); assay type: functional;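 further: Dose-response confirmation in a TR-FRET assay detecting UBC13-driven polyubiquitin chain formation, inhibition measured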
T6 sequence (P61088 whole entry): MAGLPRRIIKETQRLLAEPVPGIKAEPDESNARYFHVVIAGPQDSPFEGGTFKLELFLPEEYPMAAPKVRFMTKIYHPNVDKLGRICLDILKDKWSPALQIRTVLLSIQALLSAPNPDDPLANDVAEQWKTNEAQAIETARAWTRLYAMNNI

HEK293 = assay: EBV LMP1 TES2 canonical NF-kB signalling blockers – cell-based, HEK293, luciferase, cherry-pick, dose response (AID 588343); assay type: functional; conditions: Homo sapiens
Cytochrome P450 3A4 [16] = target: T3, Cytochrome P450 3A4; conditions: Potency

Compound: Cc1ccc(N=C=O)cc1N=C=O [TOLUENE DIISOCYANATE]
- AC50 [1]: 50.1 µM (inconclusive)

Compound: O=C(/C=C\c1ccc(/C=C/C(=O)Nc2cccc(C3=NCCCN3)c2)cc1)Nc1cccc(C2=NCCCN2)c1
- GI50 (P388): 0.303 µM (active)
- GI50 (SN12K1): > 100 µM (inactive)
- GI50 (P388/ADR): 79.3 µM (inactive)

Compound: CCc1nnc(NC(=O)c2cc(-c3ccccc3)nn2-c2ccccc2)s1
- AC50 (Cytochrome P450 1A2): 15.8 µM (inconclusive)
- AC50 (Cytochrome P450 3A4 [2]): inconclusive
- EC50 [3]: > 120 µM (not active)
- EC50 [4]: 7.74 µM (active)
- EC50 (H4): > 120 µM (not active)

Compound: CCN(CC)P(c1n(C)cc[n+]1C)N(CC)CC
- IC50 [5]: 2.47 µM (active)
- IC50 [6]: 3.2 µM (active)
- IC50 [7]: 3.52 µM (active)

Compound: CCOC(=O)/C(=C\c1ccccc1)C(=O)CCN1CCOCC1
- GI50 (P388): 0.627 µM (active)
- GI50 (SN12K1): 5.53 µM (inactive)
- GI50 (P388/ADR): 1.13 µM (inactive)

Compound: Cc1csc2ncnc(NCCc3ccccn3)c12
- EC50 [8]: 1.92 µM (active)
- AC50 (INS1): 4.39 µM (active)
- IC50 (Protein Wnt-3a): 0.887 µM (active)
- EC50 [9]: > 160 µM (inactive)

Compound: COc1cc(C(=O)Nc2ccc(O)cc2C(=O)O)ccc1OC(C)=O
- IC50 [10]: 0.659 µM (active)

Compound: CC(=O)c1ccc(N2CCN(S(=O)(=O)c3ccc4c5c3CC(=O)N5CC(C)S4)CC2)cc1 (configuration not stated)
- IC50 [11]: 50.7 µM (active)
- CC50 [12]: 17 µM (active)

Compound: Clc1ccc(-c2noc(CN3CCOCC3)n2)cc1
- AC50 (A-375 [13]): > 35 µM (active)
- AC50 (A-375 [14]): > 35 µM (active)

Compound: COC(=O)[C@]12CC=C3O[C@@H]4OC5(CCCCC5)O[C@@H]4[C@H]3C1C(=O)C=CC2=O (some centres not stated)
- GI50 (P388): 2.81 µM (inactive)
- GI50 (SN12K1): 16 µM (inactive)
- GI50 (P388/ADR): 2.96 µM (inactive)

Compound: COc1cc(C2c3cc4c(cc3[C@@H](Nc3ccc5c(c3)OCCO5)C3COC(=O)[C@H]23)OCO4)cc(OC)c1O (some centres not stated)
- GI50 (P388): < 0.01 µM (active)
- GI50 (SN12K1): 0.274 µM (active)
- GI50 (P388/ADR): 0.229 µM (active)

Compound: O=C(CC1SCCNC1=O)Nc1ccc(F)c(Cl)c1 (configuration not stated)
- IC50 [10]: 25.7 µM (inactive)

Compound: COc1ccc(C(=O)Nn2c(SCC(=O)c3ccc(Cl)cc3)nc3ccccc3c2=O)cc1
- IC50 [15]: > 20 µM (inactive)
- AC50 (HEK293): 8.36 µM (active)

Compound: Nc1cc(Cl)c(N)c(Cl)c1
- AC50 (Cytochrome P450 3A4 [16]): 20 µM (inconclusive)
- AC50 [1]: 31.6 µM (inconclusive) and 25.1 µM (inconclusive)

Compound: O=C(CNC(=O)c1ccc(Br)cc1)c1ccccc1
- AC50 (A-375 [13]): > 35 µM (active)
- AC50 (A-375 [14]): > 35 µM (active)

Compound: CCOC(=O)c1ccc(NC(=O)COc2ccccc2CNCCO)cc1
- IC50 [10]: 25.3 µM (inactive)

Compound: Cc1cccc2sc(N)nc12
- AC50 [1]: 56.2 µM (inconclusive)

Compound: CCOC(=O)C[n+]1c2n(c3ccccc31)CC(O)CS2 (configuration not stated)
- IC50 [7]: 6.53 µM (active)

Compound: COc1nc(NC2CCCCC2)nc(NC(C)(C)C)n1
- AC50 (A-375 [13]): > 35 µM (active)
- AC50 (A-375 [14]): > 35 µM (active)
